The source of these data is patent US20150239889A1, “PYRAZOLOPYRIMIDINE COMPOUND” (MITSUBISHI TANABE PHARMA CORPORATION, priority 2012, published 2015).

The target of one assay is T1, human HIF-PHD2 (Homo sapiens, UniProt Q9GZT9).
T1 construct: purchased CrystalGenomics Ltd
The assay can be described thus: HIF-PHD inhibition assay (fluorescence polarization), human HIF-PHD2. It is filed as biochemical. The following applies: 2-oxoglutaric acid 3.33 μmol/L. Summed up:
(§1)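 FP readout; enzyme activity = mP post-enzyme − mP pre-enzyme. FAM-labelled probe, ACA spacer.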
A general note: Fluorescence polarisation rises when a labelled molecule tumbles more slowly, as on binding a larger partner.

A further assay concerns the target T2, human HIF-PHD3 (Homo sapiens, UniProt Q9H6Z9).
T2 construct: purchased CrystalGenomics Ltd
The experiment in a line: HIF-PHD inhibition assay (fluorescence polarization), human HIF-PHD3. It is filed as biochemical. The following applies: 2-oxoglutaric acid 166 μmol/L. Summed up:
as §1

The next assay concerns Hep3B cells. The assay can be described thus: EPO production assay (ELISA of culture supernatant). The class given is cell-based. The following applies: Homo sapiens, 3 μmol/L test compound, 48 hours, relative to control (0.1% DMSO), read-out: EPO production stimulation rate with 3 μmol/L test compound. How it is done:
The stimulatory effect of the compound onEPO production was determined as follows using Hep3B cells.
Cells were seeded on 96 well plates at 40000 cells/well, and the plate was incubated overnight in MEM medium containing 10% fetal bovine serum (FBS) at 37° C. under 5% CO2. The next day, the medium was replaced with MEM containing 0.5% FBS, followed by addition of test compound. The test compound was dissolved in dimethyl sulfoxide and added to the cell so that the final concentration of dimethyl sulfoxide was 0.1%. After incubation for additional 48 hours, the culture supernatant was collected, and EPO contained in the supernatant was determined using ELISA kit (EPO ELISA Kit 11-693-417-001, Roche Co.). The results were expressed as stimulation rate of EPO production (fold), which was calculated as the relative value of the EPO production with 3 μmol/L of the test compound compared to the EPO production without stimulation (control).
Stimulation rate of EPO production (fold)=(EPO production with addition of test compound)/(EPO production of control)
Background: In an ELISA, binding on a coated surface is turned into a signal by an enzyme label.

Where only a bound is given, the exact number is not on record here.

T2 sequence (Q9H6Z9 whole entry): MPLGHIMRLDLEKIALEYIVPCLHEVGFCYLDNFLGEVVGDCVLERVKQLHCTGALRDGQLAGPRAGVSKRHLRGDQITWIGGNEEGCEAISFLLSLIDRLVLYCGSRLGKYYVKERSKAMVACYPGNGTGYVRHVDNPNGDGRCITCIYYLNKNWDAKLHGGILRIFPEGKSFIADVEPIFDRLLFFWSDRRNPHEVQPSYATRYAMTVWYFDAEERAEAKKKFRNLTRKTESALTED
T1 sequence (Q9GZT9 2-426 limits assumed): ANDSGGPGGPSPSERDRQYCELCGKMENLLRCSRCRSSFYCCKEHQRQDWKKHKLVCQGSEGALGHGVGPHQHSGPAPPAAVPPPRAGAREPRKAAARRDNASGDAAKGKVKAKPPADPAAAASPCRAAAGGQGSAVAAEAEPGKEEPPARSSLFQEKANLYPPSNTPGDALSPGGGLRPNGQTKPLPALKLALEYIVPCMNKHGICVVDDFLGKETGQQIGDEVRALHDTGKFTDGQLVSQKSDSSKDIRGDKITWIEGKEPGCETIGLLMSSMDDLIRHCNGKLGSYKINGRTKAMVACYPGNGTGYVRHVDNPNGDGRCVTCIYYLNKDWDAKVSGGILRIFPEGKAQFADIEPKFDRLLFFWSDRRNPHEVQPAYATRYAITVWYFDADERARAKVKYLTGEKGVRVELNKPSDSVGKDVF

Consider `Cc1cccc(-c2ccc(Cn3ncc4nc(-n5cc(C(=O)O)cn5)nc(O)c43)cc2)c1` [Example 64], for which the IC50 at human HIF-PHD2 turned out to be 18 nM; on human HIF-PHD3 it was 66 nM. In addition, the fold induction at 3 µM with Hep3B cells is 23.
With `O=C(O)c1cnn(-c2nc(O)c3c(cnn3Cc3ccc(-c4cccc(C(F)(F)F)c4)cc3)n2)c1` [Example 65], the IC50 against human HIF-PHD2 is 11 nM; against human HIF-PHD3, 180 nM. In the assay on Hep3B cells, the fold induction at 3 µM is 20.
On the same counts, the results for `O=C(O)c1cnn(-c2nc(O)c3c(cnn3Cc3ccc(-c4ccc(F)cc4)cc3)n2)c1` [Example 66] are 17 nM, 110 nM and 33.
As for `O=C(O)c1cnn(-c2nc(O)c3c(cnn3Cc3ccc(-c4ccc(C(F)(F)F)cc4)cc3)n2)c1` [Example 67], the IC50 on human HIF-PHD2 came out at 10 nM; at human HIF-PHD3 it was 190 nM. In addition, the fold induction at 3 µM in the assay on Hep3B cells was 19.
Regarding `Cc1cccc(C)c1-c1ccc(Cn2ncc3nc(-n4cc(C(=O)O)cn4)nc(O)c32)cc1` [Example 68], the half-maximal inhibitory concentration (IC50) at human HIF-PHD2 stood at 23 nM; against human HIF-PHD3, 160 nM. Moreover, the fold induction at 3 µM in the assay with Hep3B cells was 9.5.
On to `COc1cccc(Cl)c1-c1ccc(Cn2ncc3nc(-n4cc(C(=O)O)cn4)nc(O)c32)cc1` [Example 69], for which the IC50 on human HIF-PHD2 is 13 nM; on human HIF-PHD3 it was 110 nM. The fold induction at 3 µM in the assay on Hep3B cells worked out at 7.8.
On the same counts, the results for `Cc1ccc(-c2ccc(Cn3ncc4nc(-n5cc(C(=O)O)cn5)nc(O)c43)cc2)c(C)c1` [Example 70] are 11 nM, 110 nM and 24.
For the compound `O=C(O)c1cnn(-c2nc(O)c3c(cnn3Cc3ccc(-c4cccc(F)c4F)cc3)n2)c1` [Example 76], the IC50 on human HIF-PHD2 was determined as 9.1 nM; on human HIF-PHD3 it was 120 nM. In the assay with Hep3B cells, the fold induction at 3 µM amounted to 6.9.
For `O=C(O)c1cnn(-c2nc(O)c3c(cnn3Cc3ccc(-c4cc(F)ccc4F)cc3)n2)c1` [Example 77], the IC50 against human HIF-PHD2 was determined as 8.7 nM; at human HIF-PHD3, 130 nM. Besides, in the assay with Hep3B cells, the fold induction at 3 µM turned out to be 9.8.
For the compound `O=C(O)c1cnn(-c2nc(O)c3c(cnn3Cc3ccc(-c4ccccc4)cc3F)n2)c1` [Example 78], the IC50 at human HIF-PHD2 was 6.1 nM; against human HIF-PHD3, 68 nM. Further, in the assay on Hep3B cells, the fold induction at 3 µM came to 30.
On the same counts, the results for `O=C(O)c1cnn(-c2nc(O)c3c(cnn3Cc3c(F)cc(-c4ccccc4)cc3F)n2)c1` [Example 79] are 16 nM, 200 nM and 14.
For `O=C(O)c1cnn(-c2nc(O)c3c(cnn3Cc3ccc(-c4ccccc4F)cc3F)n2)c1` [Example 80], the IC50 against human HIF-PHD2 was 8.9 nM; at human HIF-PHD3, 42 nM. In the assay on Hep3B cells, the fold induction at 3 µM was found to be 9.5.
For the compound `O=C(O)c1cnn(-c2nc(O)c3c(cnn3Cc3ccc(-c4c(F)cccc4F)cc3F)n2)c1` [Example 81], the IC50 against human HIF-PHD2 was 35 nM; against human HIF-PHD3, 170 nM. Further, the fold induction at 3 µM in the assay with Hep3B cells is 5.4.
On the same counts, the results for `Cc1ccccc1-c1ccc(Cn2ncc3nc(-n4cc(C(=O)O)cn4)nc(O)c32)c(F)c1` [Example 83] are 33 nM, 240 nM and 6.2.
Take `O=C(O)c1cnn(-c2nc(O)c3c(cnn3Cc3ccc(-c4ccccc4C(F)(F)F)cc3F)n2)c1` [Example 84]: the IC50 on human HIF-PHD2 came out at 13 nM; against human HIF-PHD3 it was 200 nM. In addition, in the assay with Hep3B cells, the fold induction at 3 µM is 4.3.
With `COc1ccccc1-c1ccc(Cn2ncc3nc(-n4cc(C(=O)O)cn4)nc(O)c32)c(F)c1` [Example 85], the IC50 against human HIF-PHD2 was determined as 11 nM; on human HIF-PHD3, 66 nM. Also, in the assay on Hep3B cells, the fold induction at 3 µM stood at 4.
As to `O=C(O)c1cnn(-c2nc(O)c3c(cnn3Cc3ccc(-c4ccccc4OC(F)(F)F)cc3F)n2)c1` [Example 86], the IC50 was determined as 21 nM against human HIF-PHD2 and 330 nM against human HIF-PHD3. Moreover, the fold induction at 3 µM in the assay with Hep3B cells turned out to be 2.5.
On the same counts, the results for `N#Cc1ccccc1-c1ccc(Cn2ncc3nc(-n4cc(C(=O)O)cn4)nc(O)c32)c(F)c1` [Example 87] are 50 nM, 260 nM and 5.3.
Consider `O=C(O)c1cnn(-c2nc(O)c3c(cnn3Cc3ccc(-c4ccccc4F)cc3C(F)(F)F)n2)c1` [Example 89], for which the IC50 came out at 48 nM against human HIF-PHD2 and 1300 nM on human HIF-PHD3. The fold induction at 3 µM in the assay on Hep3B cells was 16.
Take `O=C(O)c1cnn(-c2nc(O)c3c(cnn3Cc3ccc(-c4ccccc4)c(F)c3)n2)c1` [Example 91]: the IC50 at human HIF-PHD2 came out at 24 nM; on human HIF-PHD3, 28 nM. For the same compound, the fold induction at 3 µM with Hep3B cells came out at 8.6.
For the compound `Cc1cc(Cn2ncc3nc(-n4cc(C(=O)O)cn4)nc(O)c32)ccc1-c1ccccc1F` [Example 94], the IC50 against human HIF-PHD2 came to 65 nM; at human HIF-PHD3 it was 300 nM. For the same compound, the fold induction at 3 µM in the assay on Hep3B cells is 17.
Consider `COc1ccccc1-c1ccc(Cn2ncc3nc(-n4cc(C(=O)O)cn4)nc(O)c32)cc1F` [Example 95], for which the values for the IC50 on human HIF-PHD2 and against human HIF-PHD3 were 24 nM and 86 nM, respectively. Also, the fold induction at 3 µM with Hep3B cells was 4.2.
Take `COc1cc(Cn2ncc3nc(-n4cc(C(=O)O)cn4)nc(O)c32)ccc1-c1ccccc1F` [Example 96]: the IC50 against human HIF-PHD2 was 13 nM; against human HIF-PHD3 it was 110 nM. In addition, the fold induction at 3 µM with Hep3B cells stood at 6.8.
As to `COc1cc(Cn2ncc3nc(-n4cc(C(=O)O)cn4)nc(O)c32)ccc1-c1c(F)cccc1F` [Example 97], the IC50 on human HIF-PHD2 was found to be 34 nM; on human HIF-PHD3, 300 nM. Further, in the assay on Hep3B cells, the fold induction at 3 µM is 5.2.
Regarding `COc1cc(Cn2ncc3nc(-n4cc(C(=O)O)cn4)nc(O)c32)ccc1-c1ccccc1C` [Example 98], the figures for the IC50 at human HIF-PHD2 and on human HIF-PHD3 were 20 nM and 190 nM, respectively. For the same compound, the fold induction at 3 µM in the assay on Hep3B cells is 8.6.
With `COc1ccccc1-c1ccc(Cn2ncc3nc(-n4cc(C(=O)O)cn4)nc(O)c32)cc1OC` [Example 99], the values for the IC50 at human HIF-PHD2 and on human HIF-PHD3 were 37 nM and 200 nM, respectively. Besides, the fold induction at 3 µM in the assay with Hep3B cells was found to be 3.1.
On the same counts, the results for `O=C(O)c1cnn(-c2nc(O)c3c(cnn3Cc3ccc(-c4ccccc4F)c(F)c3F)n2)c1` [Example 101] are 15 nM, 120 nM and 12.
As to `Cc1ccccc1-c1ccc(Cn2ncc3nc(-n4cc(C(=O)O)cn4)nc(O)c32)cc1F` [Example 102], the IC50 against human HIF-PHD2 was found to be 19 nM; at human HIF-PHD3, 150 nM. In the assay on Hep3B cells, the fold induction at 3 µM amounted to 9.8.
As for `O=C(O)c1cnn(-c2nc(O)c3c(cnn3Cc3ccc(-c4ccc(F)cc4F)nc3)n2)c1` [Example 104], the figures for the IC50 on human HIF-PHD2 and against human HIF-PHD3 were 10 nM and 110 nM, respectively. Besides, in the assay with Hep3B cells, the fold induction at 3 µM worked out at 5.4.
On to `O=C(O)c1cnn(-c2nc(O)c3c(cnn3Cc3ccc(-c4cc(C(F)(F)F)ccc4F)nc3)n2)c1` [Example 105], for which the values for the IC50 at human HIF-PHD2 and against human HIF-PHD3 were 12 nM and 110 nM, respectively. The fold induction at 3 µM with Hep3B cells came out at 9.5.
Take `Cc1ncccc1-c1ccc(Cn2ncc3nc(-n4cc(C(=O)O)cn4)nc(O)c32)cc1F` [Example 106]: the IC50 on human HIF-PHD2 was determined as 7.4 nM; against human HIF-PHD3 it was 28 nM. Besides, in the assay on Hep3B cells, the fold induction at 3 µM was 5.2.
Regarding `C[C@H](c1ccc(-c2ccccc2)cc1)n1ncc2nc(-n3cc(C(=O)O)cn3)nc(O)c21` [Example 109], the IC50 on human HIF-PHD2 came to 24 nM; against human HIF-PHD3, 260 nM. Also, the fold induction at 3 µM in the assay with Hep3B cells was 20.
As to `C[C@@H](c1ccc(-c2ccccc2)cc1)n1ncc2nc(-n3cc(C(=O)O)cn3)nc(O)c21` [Example 110], the half-inhibitory concentration (IC50) came to 27 nM against human HIF-PHD2 and 63 nM on human HIF-PHD3. Also, the fold induction at 3 µM in the assay on Hep3B cells was determined as 56.
With `C[C@H](c1ccc(-c2ccccc2F)cc1)n1ncc2nc(-n3cc(C(=O)O)cn3)nc(O)c21` [Example 111], the IC50 on human HIF-PHD2 is 25 nM; against human HIF-PHD3 it was greater than 1000 nM. The fold induction at 3 µM with Hep3B cells amounted to 36.
On the same counts, the results for `C[C@@H](c1ccc(-c2ccccc2F)cc1)n1ncc2nc(-n3cc(C(=O)O)cn3)nc(O)c21` [Example 112] are 13 nM, 87 nM and 28.
`COc1ccccc1-c1ccc([C@H](C)n2ncc3nc(-n4cc(C(=O)O)cn4)nc(O)c32)cc1` [Example 113]: the IC50 against human HIF-PHD2 turned out to be 5.3 nM; on human HIF-PHD3, 85 nM. The fold induction at 3 µM in the assay on Hep3B cells was determined as 7.5.
On to `O=C(O)c1cnn(-c2nc(O)c3c(cnn3CCc3cccc(Cl)c3)n2)c1` [Example 114], for which the values for the IC50 on human HIF-PHD2 and at human HIF-PHD3 were 20 nM and 300 nM, respectively. Moreover, the fold induction at 3 µM in the assay on Hep3B cells was 5.2.
Regarding `O=C(O)c1cnn(-c2nc(O)c3c(cnn3CCc3ccc(Cl)c(Cl)c3)n2)c1` [Example 115], the IC50 against human HIF-PHD2 was 24 nM; against human HIF-PHD3 it was 220 nM. Further, in the assay on Hep3B cells, the fold induction at 3 µM came out at 5.1.
Consider `O=C(O)c1cnn(-c2nc(O)c3c(cnn3CCc3ccc4ccccc4c3)n2)c1` [Example 116], for which the IC50 against human HIF-PHD2 is 21 nM; at human HIF-PHD3, 190 nM. Also, the fold induction at 3 µM with Hep3B cells came to 4.
For the compound `O=C(O)c1cnn(-c2nc(O)c3c(cnn3CCc3ccc4ccccc4n3)n2)c1` [Example 117], the results for the IC50 against human HIF-PHD2 and against human HIF-PHD3 were 37 nM and 520 nM, respectively. Further, in the assay with Hep3B cells, the fold induction at 3 µM stood at 2.

Broadly, the IC50 is the concentration at which inhibition is half-maximal. Read a low IC50 as greater potency in that assay.
